Assay results as given in publication PMC12125420, “Yinling Qushi Granule as a therapeutic agent for metabolic syndrome: pharmacological, molecular targets, and pharmacokinetic insights” (Advanced Biotechnology, 2025).

experiment: in vivo; conditions: male, Sprague-Dawley, rat, po, 36.99 g/kg
Experimental: (§1) SPF grade Sprague–Dawley rats (n = 6, male, 8–10-week-old, 300 ± 20 g) were obtained from the Guangdong Medical Laboratory Animal Center (Guangzhou, China, Certificate No. SCXK 2022–0002), maintained in environmental conditions with a temperature of 20–25 °C, humidity of 55 ± 15%, and a 12-h light/dark cycle. Animals were acclimated for 7 days prior to drug administration. The experimental procedures and protocols have been approved by the Animal Ethics Committee of the School of Life Sciences, Sun Yat-sen University (Ethics approval No. SYSU-lS-IACUC- 2024–0130, Guangzhou, China), with every effort being made to minimize the suffering of the animals.
(§2) In order to investigate the absorbable components in vivo, Yinling Qushi (YLQS) extract was prepared as follows: 77.76 g of Poria cocos (Schw.) Wolf (Fuling, FL), 29.16 g of Atractylodes macrocephala Koidz. (Baizhu, BZ), 12.96 g of Zingiber officinale Rosc. (Ganjiang, GJ), 19.44 g of Polyporus umbellatus (Pers.) Fries (Zhuling, ZL), 19.44 g of Cinnamomum cassia Presl (Guizhi, GZ), 24.30 g Artemisia capillaris Thunb. (Yinchen, YC), 19.44 g Glehnia littoralis Fr.Schmidt ex Miq. (Beishashen, BSS) and 19.44 g of Glycyrrhiza uralensis Fisch. (Gancao, GC) were weighted. The weighted herbs were mixed thoroughly and extracted with 750 mL boiling water for 1 h, twice. The aqueous extracts were combined, filtered, and concentrated by rotary evaporation to a total volume of 12 mL, with a final extraction yield of 18.5 g crude herbal materials per 1 mL of Yinling Qushi (YLQS) extract.
(§3) SD Rats were fasted for 12 h, followed by orally administrated with Yinling Qushi (YLQS) extract at a dose of 36.99 g/kg (6.7 mL/kg). 200 μL of venous blood was collected at 0 min, 15 min, 30 min, 1 h, 2 h, 4 h, 6 h, 8 h, 10 h, 12 h, and 24 h post-gavage. Serum samples were freshly prepared by centrifugation (3,000 g, 20 min, 4 ℃), supernatant collection and storage at − 80 ℃ till analysis.
(§4) For serum extraction, 90 μL serum of indicated time points were pre-mixed with 10 μL IS working solution (myristic acid-D27, 10 μg/mL in methanol). 1 mL ethyl acetate was added to 100 μL premixed serum, vortexed vigorously for 5 min, and centrifuged (10,000 g, 15 min, 4 ℃) for protein precipitation. 700 μL of supernatant was transferred and evaporated to dryness under nitrogen flow. Prior to assay, samples were re-suspended with 100 μL methanol: distill water solution (4:1, v/v), sonicated and vortex-mixing for dissolve completely, and centrifuged (10,000 g, 20 min, 4 ℃). 10 μL of supernatant was analyzed using a connected system of AQUITY UPLC (Waters Corp., Milford, MA, USA) hybrid ZenoTOF 7600-MS/MS system (AB Sciex, Framingham, MA, USA) with electrospray ionization (ESI) source.
(§5) A reversed-phase Kinetex C18 column (2.1 × 100 mm, 2.6 μm, Phenomenex, CA, USA) was used, with 0.3 mL/min flow rate at 40 ℃. The mobile phase consisted of an aqueous solvent A (0.1% formic acid, v/v) and organic solvent B (acetonitrile with 0.1% formic acid, v/v). The elution gradient was as follows: 5–30% B (0–20 min); 30–95% B (20–27 min), maintained at 95% B (27–32 min); 95–5% B (32–33 min); and 5% B (33–38 min) to equilibrate the system.
(§6) The instrumental parameters of mass spectrometry were as follows: ion source gas 1 and gas 2 were both 55 psi, curtain gas was 35 psi, the CAD gas was 8 psi, and the ion source temperature was 550 °C. The ion spray voltage floating (ISVF) was set to 5500 V for positive mode and − 4500 V for negative mode. The collision energy (CE) and collision energy spread (CES) were set to 35 V and 15 eV, and declustering potential was 80 V. The mass-to-charge ratio (m/z) range was set to 50–1500 Da, with an accumulation time of 0.15 s. Data were collected by SCIEX OS software (version 3.3.0.12027, AB Sciex, Framingham, MA, USA) in information-dependent acquisition (IDA) mode.

Row | SMILES | AUC(0-inf) | AUC(0-t) | Cmax | Tmax | half-life
1 | CC(C)=CCCC(C(=O)O)C1C(O)CC2(C)C3=CCC4C(C)(CCC(O)C4(C)C)C3=CCC12C (stereo not drawn) [16alpha-Hydroxydehydrotrametenolic acid] | 136000 ng·h/mL | 136000 ng·h/mL | 16800 ng/mL | 4.4 ± 0.75 h | 1.78 ± 0.09 h
2 | CC(=CCCC(C(=O)O)C1C(O)CC2(C)C3=CCC4C(C)(CCC(O)C4(C)C)C3=CCC12C)CO (stereo not drawn) [Dihydroxydehydrotrametenoic acid] | 3270 ± 142 ng·h/mL | 3030 ± 356 ng·h/mL | 308 ± 35.6 ng/mL | 4.4 ± 0.75 h | 4.98 ± 1.07 h
3 | CC(C)=CC1CC(C2CCC3(C)C4=CCC5C(C)(CCC(O)C5(C)C)C4=CCC23C)C(=O)O1 (stereo not drawn) [Porilactone A] | 9200 ± 744 ng·h/mL | 9460 ± 501 ng·h/mL | 846 ± 31.9 ng/mL | 6.5 ± 1.89 h | 2.15 ± 0.24 h
4 | CC(C)C(=O)CCC(C(=O)O)C1C(O)CC2(C)C3=C(CCC12C)C1(C)CCC(O)C(C)(C)C1CC3 (stereo not drawn) [Daedaleanic acid B] | 170 ± 27.6 ng·h/mL | 129 ± 32.5 ng·h/mL | 20.6 ± 0.8 ng/mL | 1.35 ± 0.68 h | 3.84 ± 0.75 h

experiment: not given; conditions: rat, in vivo

Row | SMILES | Absorption pattern of serum concentration-time curve
5 | CC(C)=CC1CC(C2CCC3(C)C4=CCC5C(C)(CCC(O)C5(C)C)C4=CCC23C)C(=O)O1 (stereo not drawn) [Porilactone A] | double-peak absorption pattern

experiment: Pharmacokinetics of absorbed triterpenoid prototypes in rat serum after oral YLQS extract; conditions: male, Sprague-Dawley, 36.99 g/kg
Experimental: as §1, §2, §3, §4, §5, §6

Row | SMILES | AUC(0-inf) | AUC(0-t) | Cmax | Tmax | half-life
6 | C=C(C)[C@@H]1CCC2=C(CC[C@]3(C)[C@@H]([C@@H](CCC=C(C)C)C(=O)O)[C@H](O)C[C@@]23C)[C@@]1(C)CCC(=O)O [Poricoic acid G] | 4420 ± 367 ng·h/mL | 4090 ± 442 ng·h/mL | 470 ± 89.2 ng/mL | 5.5 ± 0.96 h | 3.5 ± 1.08 h
7 | C=C(C)[C@@H]1CC=C2C(=CC[C@]3(C)[C@@H]([C@@H](CCC(=C)C(C)(C)O)C(=O)O)[C@H](O)C[C@@]23C)[C@@]1(C)CCC(=O)OC [Poricoic acid DM] | 105 ± 13.6 ng·h/mL | 77.1 ± 12.4 ng·h/mL | 13.2 ± 2 ng/mL | 4 ± 1.41 h | 4.61 ± 1.21 h
8 | C=C(C)C1CC=C2C(=CCC3(C)C(C(CCC=C(C)C)C(=O)O)CCC23C)C1(C)CCC(=O)O (stereo not drawn) [16-Deoxyporicoic acid B] | 2540 ± 264 ng·h/mL | 1970 ± 280 ng·h/mL | 290 ± 44.5 ng/mL | 5.6 ± 0.75 h | 4.95 ± 0.81 h
9 | C=C(C)C1CC=C2C(=CCC3(C)C(C(CCC=C(C)CO)C(=O)O)C(O)CC23C)C1(C)CCC(=O)O (stereo not drawn) [Poricoic acid E] | 223 ± 30.6 ng·h/mL | 205 ± 25.1 ng·h/mL | 16 ± 2.7 ng/mL | 8.5 ± 1.5 h | 6.64 ± 0.75 h
10 | C=C(C)[C@@H]1CC=C2C(=CC[C@]3(C)[C@@H]([C@@H](CCC=C(C)C)C(=O)O)[C@H](O)C[C@@]23C)[C@@]1(C)CCC(=O)O [Poricoic acid B] | 2290 ± 621 ng·h/mL | 2710 ± 417 ng·h/mL | 214 ± 53.8 ng/mL | 5.5 ± 0.96 h | 4.11 ± 0.82 h
11 | C=C(C)C1CC=C2C(=CCC3(C)C(C(CCC(=C)C(C)(C)O)C(=O)O)C(O)CC23C)C1(C)CCC(=O)O (stereo not drawn) [Poricoic acid D] | 82 ± 5.1 ng·h/mL | 68 ± 10.1 ng·h/mL | 7.5 ± 1.3 ng/mL | 6.4 ± 1.72 h | 5.51 ± 0.88 h
